# Laboratory results as given in PubChem BioAssay AID1845204 (Molecular Pharmacology Branch, DTP, NCI, 2023).
# System: HSSY-II tumor spheroid viability
# Experiment: Anticancer human tumor HSSY-II cell line growth inhibition;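 further: spheroids exposed to compounds for seven days before reading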;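 on viability, T/C: percent of DMSO vehicle control viability so 100% = untreated level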
# Conditions: spheroids with HUVEC and MSC; for IC50: curve of first compound; for viability, T/C: stronger effect = lower value
# Summary of the method: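 Complex tumor spheroids combined malignant cells with endothelial cells and mesenchymal stem cells. DNA-damaging drugs and DNA repair inhibitors were tested alone and in combination, at half-log dilutions down from clinical Cmax (top 10 microM if Cmax unknown), 0.25% DMSO final.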
smiles,measurement,setting,value
COc1cc(C)[nH]c(=O)c1CN1CCc2c(Cl)cc(C(OC)C3COC3)c(Cl)c2C1=O (stereo not given) + Cn1nnc2c(C(N)=O)ncn2c1=O,IC50,second compound 1 µM,> 10 µM
same,IC50,second compound 3.16 µM,> 10 µM
same,IC50,second compound 10 µM,> 10 µM
same,IC50,second compound 31.6 µM,> 10 µM
same,IC50,second compound 100 µM,> 10 µM
same,"viability, T/C","second compound 1 µM, first compound 0.0316 µM",96.7%
same,"viability, T/C","second compound 1 µM, first compound 0.1 µM",93.1%
same,"viability, T/C","second compound 1 µM, first compound 0.316 µM",69.1%
same,"viability, T/C","second compound 1 µM, first compound 1 µM",69.2%
same,"viability, T/C","second compound 1 µM, first compound 3.16 µM",63.2%
same,"viability, T/C","second compound 1 µM, first compound 10 µM",63%
same,"viability, T/C","second compound 3.16 µM, first compound 0.0316 µM",96.7%
same,"viability, T/C","second compound 3.16 µM, first compound 0.1 µM",84.2%
same,"viability, T/C","second compound 3.16 µM, first compound 0.316 µM",76.5%
same,"viability, T/C","second compound 3.16 µM, first compound 1 µM",66.2%
same,"viability, T/C","second compound 3.16 µM, first compound 3.16 µM",64.6%
same,"viability, T/C","second compound 3.16 µM, first compound 10 µM",60.9%
same,"viability, T/C","second compound 10 µM, first compound 0.0316 µM",95.3%
same,"viability, T/C","second compound 10 µM, first compound 0.1 µM",94.2%
same,"viability, T/C","second compound 10 µM, first compound 0.316 µM",75.6%
same,"viability, T/C","second compound 10 µM, first compound 1 µM",66.8%
same,"viability, T/C","second compound 10 µM, first compound 3.16 µM",62.7%
same,"viability, T/C","second compound 10 µM, first compound 10 µM",63%
same,"viability, T/C","second compound 31.6 µM, first compound 0.0316 µM",99.7%
same,"viability, T/C","second compound 31.6 µM, first compound 0.1 µM",96.3%
same,"viability, T/C","second compound 31.6 µM, first compound 0.316 µM",76.9%
same,"viability, T/C","second compound 31.6 µM, first compound 1 µM",66.8%
same,"viability, T/C","second compound 31.6 µM, first compound 3.16 µM",65.8%
same,"viability, T/C","second compound 31.6 µM, first compound 10 µM",64.6%
same,"viability, T/C","second compound 100 µM, first compound 0.0316 µM",96.7%
same,"viability, T/C","second compound 100 µM, first compound 0.1 µM",91.4%
same,"viability, T/C","second compound 100 µM, first compound 0.316 µM",74.8%
same,"viability, T/C","second compound 100 µM, first compound 1 µM",67.4%
same,"viability, T/C","second compound 100 µM, first compound 3.16 µM",68.9%
same,"viability, T/C","second compound 100 µM, first compound 10 µM",63.7%
